The source of these data is the supplement of paper PMC10883282.

In the assay the test system is RD. As to the kind of experiment: relative viability vs DMSO control (72 h) (fraction); higher = more viable cells. In a few lines:
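Relative viability is percent growth read by ATPLite and averaged over up to triplicate wells. Sarcoma cells were seeded in 384-well plates to reach 80–90% confluence and given 2.5 µl of serially diluted compound after 24 h, from source plates of 10 mM to 0.0002 mM. Incubation lasted 72 h at 37 °C, 5% CO2, with 0.1% DMSO vehicle and a 5 µM positive control, and the data were rescaled so 1 equals full and 0 equals none.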

Molecules are shown by their SMILES. ± gives the standard deviation of the averaged measurements.

As for `Cc1ccc(F)c(NC(=O)Nc2ccc(-c3cccc4[nH]nc(N)c34)cc2)c1` [Linifanib], the relative viability came to 1.07 ± 0.027 (0.00017 µM); 1.07 ± 0.028 (0.00051 µM); 1.08 ± 0.039 (0.00152 µM); 1.124 ± 0.01 (0.00457 µM); 1.12 ± 0.025 (0.01372 µM); 1.1 ± 0.033 (0.04115 µM). Further, the relative viability is, setting by setting: (0.1235 µM) 1.14 ± 0.018; (0.3704 µM) 1.14 ± 0.031; (1.111 µM) 1.12 ± 0.031; (3.333 µM) 1.11 ± 0.042; (10 µM) 1.13 ± 0.029.

On to `CC(C)N1CCN(Cc2cnc(-c3cc(-c4cccc5[nH]ccc45)cc4[nH]ncc34)o2)CC1` [Nemiralisib], for which the relative viability is 0.931 ± 0.024 (0.00017 µM); 0.951 ± 0.017 (0.00051 µM); 0.916 ± 0.051 (0.00152 µM); 0.955 ± 0.025 (0.00457 µM); 0.941 ± 0.025 (0.01372 µM); 0.937 ± 0.011 (0.04115 µM). Further, the relative viability is, setting by setting: (0.1235 µM) 0.964 ± 0.016; (0.3704 µM) 0.902 ± 0.028; (1.111 µM) 0.83 ± 0.01; (3.333 µM) 0.692 ± 0.053; (10 µM) 0.128 ± 0.083.

`COCc1c(-c2cc3cc(C)cc(OC)c3s2)c2c(N)ncnn2c1CN1CCNC(=O)C1` [Rogaratinib]: the relative viability reads like this: (0.00017 µM) 1.03 ± 0.022; (0.00051 µM) 1.09 ± 0.017; (0.00152 µM) 1.08 ± 0.024; (0.00457 µM) 1.11 ± 0.037; (0.01372 µM) 1.09 ± 0.033; (0.04115 µM) 1.12 ± 0.016. Besides, the relative viability was determined as 1.1 ± 0.057 (0.1235 µM); 1.08 ± 0.03 (0.3704 µM); 1.07 ± 0.047 (1.111 µM); 0.923 ± 0.042 (3.333 µM); 0.569 ± 0.015 (10 µM).

For `Cc1cc(Nc2ncnc3ccc(NC4=NC(C)(C)CO4)cc23)ccc1Oc1ccn2ncnc2c1` [Tucatinib], the relative viability runs as follows: (0.00017 µM) 1.08 ± 0.071; (0.00051 µM) 1.09 ± 0.076; (0.00152 µM) 1.11 ± 0.04; (0.00457 µM) 1.08 ± 0.04; (0.01372 µM) 1.1 ± 0.026; (0.04115 µM) 1.1 ± 0.017. The relative viability reads like this: (0.1235 µM) 1.07 ± 0.067; (0.3704 µM) 1.11 ± 0.073; (1.111 µM) 1.14 ± 0.081; (3.333 µM) 1.18 ± 0.063; (10 µM) 1.15 ± 0.061.

Take `O=C(Nc1cnn2ccc(N3CCC[C@@H]3c3cc(F)ccc3F)nc12)N1CC[C@H](O)C1` [Larotrectinib]: the relative viability was determined as 1.07 ± 0.035 (0.00017 µM); 1.092 ± 0.0046 (0.00051 µM); 1.09 ± 0.059 (0.00152 µM); 1.1 ± 0.05 (0.00457 µM); 1.11 ± 0.042 (0.01372 µM); 1.1 ± 0.11 (0.04115 µM). Moreover, the relative viability by setting is: (0.1235 µM) 1.13 ± 0.051; (0.3704 µM) 1.12 ± 0.073; (1.111 µM) 1.13 ± 0.037; (3.333 µM) 1.1 ± 0.068; (10 µM) 1.09 ± 0.12.

As to `CN1CCC(COc2cnc(-c3cccc(Cn4nc(-c5cccc(C#N)c5)ccc4=O)c3)nc2)CC1` [Tepotinib], the relative viability runs as follows: (0.00017 µM) 1.03 ± 0.049; (0.00051 µM) 1.1 ± 0.084; (0.00152 µM) 1.09 ± 0.039; (0.00457 µM) 1.1 ± 0.055; (0.01372 µM) 1.12 ± 0.031; (0.04115 µM) 1.13 ± 0.049. In addition, the relative viability was 1.12 ± 0.093 (0.1235 µM); 1.14 ± 0.029 (0.3704 µM); 1.1 ± 0.065 (1.111 µM); 1.11 ± 0.031 (3.333 µM); 0.941 ± 0.07 (10 µM).

Consider `C[C@@H]1CCN(C(=O)CC#N)C[C@@H]1N(C)c1ncnc2[nH]ccc12` [Tofacitinib], for which the relative viability was found to be 1.05 ± 0.051 (0.00017 µM); 1.08 ± 0.064 (0.00051 µM); 1.1 ± 0.072 (0.00152 µM); 1.12 ± 0.055 (0.00457 µM); 1.13 ± 0.068 (0.01372 µM); 1.13 ± 0.063 (0.04115 µM). Further, the relative viability is, setting by setting: (0.1235 µM) 1.13 ± 0.09; (0.3704 µM) 1.11 ± 0.029; (1.111 µM) 1.14 ± 0.065; (3.333 µM) 1.14 ± 0.051; (10 µM) 1.13 ± 0.056.

On to `N#CC[C@H](C1CCCC1)n1cc(-c2ncnc3[nH]ccc23)cn1` [Ruxolitinib], for which the relative viability (0.00017 µM) was 0.965 ± 0.052; the relative viability (0.00051 µM) is 0.972 ± 0.049; the relative viability (0.00152 µM) came to 0.965 ± 0.041; the relative viability (0.00457 µM) amounted to 0.977 ± 0.059; the relative viability (0.01372 µM) was determined as 0.97 ± 0.034; the relative viability (0.04115 µM) came to 0.979 ± 0.044. Besides, the relative viability (0.1235 µM) came to 0.973 ± 0.051; the relative viability (0.3704 µM) was 0.965 ± 0.058; the relative viability (1.111 µM) amounted to 0.976 ± 0.056; the relative viability (3.333 µM) is 0.976 ± 0.092; the relative viability (10 µM) came out at 0.895 ± 0.055.

Take `C=CC(=O)N1CCC[C@@H](n2nc(-c3ccc(Oc4ccccc4)cc3)c3c(N)ncnc32)C1` [Ibrutinib]: the relative viability is 1.08 ± 0.04 (0.00017 µM); 1.11 ± 0.053 (0.00051 µM); 1.09 ± 0.032 (0.00152 µM); 1.13 ± 0.07 (0.00457 µM); 1.14 ± 0.063 (0.01372 µM); 1.12 ± 0.054 (0.04115 µM). Further, the relative viability worked out at 1.15 ± 0.062 (0.1235 µM); 1.15 ± 0.079 (0.3704 µM); 1.14 ± 0.083 (1.111 µM); 1.13 ± 0.037 (3.333 µM); 0.984 ± 0.058 (10 µM).
